According to article PMC12703741, “Light-Activated Metal-Dependent Protein Degradation: A Heterobifunctional Ruthenium(II) Photosensitizer Targeting New Delhi Metallo-β-lactamase 1” (Journal of the American Chemical Society, 2025):

Molecular target: NDM-1 (Klebsiella pneumoniae, UniProt C7C422)
Type: biochemical
Conditions: mixture of NDM-1 and BSA, 0-1000 μM, light 450 nm, 20 J cm^-2
Protocol: 1.8 Protein degradation via SDS-PAGE […]
were made at 10 mM in DMSO and then diluted to the appropriate concentration (1 mM – 10 µM) in 50 mM HEPES pH 7.5. The enzyme stocks (10 µM) were made up in 50 mM HEPES pH 7.5. The compound and enzyme stocks were mixed 1:1 and then pre -incubated for 10 min […]
‘light’ conditions the samples were transferred to a 96 well plate to provide irradiation. For a […]
(208 s, 96 mW cm-2). For a dose of 60 J cm-2 the plate was irradiated immediately (624 s, 96 […]
An aliquot of each sample was mixed with SDS-sample buffer (NuPAGE® LDS Sample buffer 4x) and heated to 95°C for 3 min. The samples were loaded on to the gel (NuPAGE® 4-12% Bis-tris gel) and run at 200V/125 mA for 30 min (1 gel per Gel box) or 60 min (2 gels per Gel box). SDS-PAGE gels were imaged using a Cytiva Amersham ImageQuant™ 800.
Densitometry of gel bands was measured and processed using Fiji (ImageJ).
1.8.3 BSA+NDM-1 selectivity experiment […]
nm, 20 J cm-2). Lane 1: Ladder; Lane 2: NDM-1 – no compound control (dark); Lane 3: BSA – no compound control (dark); Lane 4: NDM-1 + BSA - no compound control (dark); Lane 5: NDM-1 + BSA + 1 eq. compound (dark); Lane 6: NDM-1 + BSA + 10 eq. compound (dark); Lane 7: NDM-1 + BSA + 100 eq. compound (dark); Lane 8: NDM-1 + BSA - no compound control (light); Lane 9: NDM-1 + BSA + 1 eq. compound (light); Lane 10: NDM-1 + BSA + 10 eq. compound (light); Lane 11: NDM-1 + BSA + 100 eq. compound (light). […]
the dark (left) and under light irradiation (450 nm, 20 J cm-2).

NDM-1, sequence (C7C422 31-270 limits assumed): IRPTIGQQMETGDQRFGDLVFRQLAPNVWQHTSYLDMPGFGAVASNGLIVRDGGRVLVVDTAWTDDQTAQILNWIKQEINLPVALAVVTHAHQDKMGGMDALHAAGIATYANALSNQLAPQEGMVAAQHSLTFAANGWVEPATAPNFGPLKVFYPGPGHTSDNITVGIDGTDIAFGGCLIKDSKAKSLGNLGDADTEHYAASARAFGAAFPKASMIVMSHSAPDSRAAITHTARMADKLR

In the case of `F[P-](F)(F)(F)(F)F.F[P-](F)(F)(F)(F)F.[Ru+2].c1ccc(-c2ccccn2)nc1.c1ccc(-c2ccccn2)nc1.c1ccc(-n2cnc3c4cccnc4c4ncccc4c32)cc1` [Ru2, [Ru(2,2'-bipyridine)2(1-phenyl-imidazo[4,5,f][1,10]phenanthroline)](PF6)2], the “Degradation of NDM-1 vs BSA (band intensity)” value is reported as “both NDM-1 and BSA band intensities were diminished”.
